# Results from PMC12703457, “Dynamic Anchoring of Peptides to the Extracellular Matrix Enabled by Boronic Acid” (Chembiochem, 2025).
# “And” between values parts separate entries of the source, which are not always exact repeats. Equal entries are not always repeated. Where two headings read alike, the source gives them in different places. Bridge positions count the residues as written; N and C are the ends. Square brackets hold non-standard residues; d marks the D form. Peptide text beside a SMILES is read from it. * marks the point of attachment. Benzoyl(4-B(OH)2) = O=C(c1ccc(B(O)O)cc1)*; PEG6 = NCCOCCOCCOCCOCCOCCOCCC(=O)O
# Legend:
# [1] = cited from earlier work
# Procedure: Binding constants of boronic acids and diols have been previously linked to their pKA and pH environment, with phenylboronic acid (pKA = 8.8) showing a binding optimum with ARS at a pH of 7 (1.1 mM^−1).^[ [20] ^]
# [2] = ARS competition assay with D‐mannitol; type: binding; conditions: for Association constant K eq with D‐mannitol: ARS competition assay, pH 7.4, 0.1 M phosphate buffer, fluorescence at 572 nm, average of triplicate runs
# [3] = Alizarin Red S (ARS) assay, association of boronic acid with ARS; type: binding; conditions: for Association constant K eq with ARS: ARS assay, pH 7.4, 0.1 M phosphate buffer, fluorescence at 572 nm, average of triplicate runs
# [4] = ARS competition assay with D‐glucamine; type: binding; conditions: for Association constant K eq with D‐glucamine: ARS competition assay, pH 7.4, 0.1 M phosphate buffer, fluorescence at 572 nm, average of triplicate runs; for Interaction with D‐glucamine in ARS competition assay: fluorescence decay at 572 nm, rising D‐glucamine concentrations, pH 7.4, n = 3
# [5] = ARS competition assay with D‐(‐)‐fructose; type: binding; conditions: for Association constant K eq with D‐(‐)‐fructose: ARS competition assay, pH 7.4, 0.1 M phosphate buffer, fluorescence at 572 nm, average of triplicate runs
# myostatin = target: T1, myostatin (Homo sapiens, UniProt O14793); assay: Myostatin inhibition assay, SMAD luciferase reporter in HEK SBE cells; type: cell-based
# T1 construct: purchased Bio-techne (Minneapolis)
# T1 sequence (O14793 267-375): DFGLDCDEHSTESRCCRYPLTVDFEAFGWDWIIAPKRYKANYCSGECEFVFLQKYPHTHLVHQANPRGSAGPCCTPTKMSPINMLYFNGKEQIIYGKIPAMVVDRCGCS
# [6] = UV‐VIS spectra, shift of ARS absorbance maximum upon ester formation; type: binding; conditions: UV‐VIS spectra in the presence of ARS
# Text: As a positive control, we used 4‐(dihydroxyboryl)benzoic acid coupled to the hydrophilic polymer PEG of 2000 Da, with a similar molecular weight. […] We continued to examine the binding of CBPA‐PEG‐MI to ARS in the presence of D‐glucamine, D‐(‐)‐fructose and D‐mannitol as a competition assay as outlined above (Figure 4B, Figure S11, Supporting Information).
# Figure S10: UV-VIS spectra of various peptides bound to ARS or glucamine. CPBA was used as a positive control, while ARS serves as a negative control. (A) UV-VIS-spectra of the peptide CPBA-MI in the presence of ARS- or glucamine. (B) UV-VIS-spectra of the peptide CPBA-PEG-MI in the presence of ARS- or glucamine. (C) UV-VIS-spectra of the peptide Acetyl-MI in the presence of ARS- or glucamine.
# Figure S11: Fluorescence decay at 572 nm measured in an ARS competition assay with CPBA-PEG-MI and the negative control acetyl-MI in the presence of rising concentrations of fructose (A) and mannitol (B) as model saccharides at pH 7.4.
# Data are shown as mean ± STDEV (n = 3). […]
# [7] = test system: cell‐derived decellularized extracellular matrices (CDMs) from NIH‐3T3 fibroblasts; assay: Fluorescence imaging of CDMs with CPBA‐NQEQVSPL‐5/6‐carboxyrhodamine 110; type: binding, murine; conditions: fluorescence microscopy
# Procedure: The hydrophilic PEG6 linker within the peptide structure was crucial to ensure sufficient water solubility.
# For visualization of fibronectin, the CDMs were first blocked using 1x Roti‐Block for 60 min at RT and washed once with PBS. A combination of Rabbit Anti‐Fibronectin antibody (F3648) (1:400 in PBS, overnight at 4 °C) and Anti‐rabbit IgG (H + L), F(ab’)2 Fragment (Alexa Fluor 647 Conjugate) 4414 (1:200 in PBS, 90 min at RT) was used. […] The dye was removed, and the matrix was washed several times with one of […] different buffers (carbonate/bicarbonate, pH 9.4; 1x PBS, pH 7.4; 1x PBS, pH 8.0, and sodium‐acetate, pH 4.1). Images were taken on an Axio Observer.Z1 microscope equipped with a 63x Plan‐Apochromat […]/1.40 Oil DIC M77 objective (Zeiss), 38 HE Green Fluorescent Reflector (λex = 450–490 nm λem = 500–550 nm), 50 Cy5 Reflector (λex = 625–655 nm λem = 665–715 nm) and a mercury vapor short‐arc lamp.
# Figure S9: (A) Fluorescent microscopy of CDM. Green channel: Staining with CBPA-[…]-5/6-Carboxyrhodamine
# 110 is shown. Red channel: Staining with a primary antibody (rabbit; Anti-fibronectin) and secondary antibody (Anti-Rabbit
# IgG, AF647) is shown. Third channel: Both channels are merged. The negative control was only stained with the antibodies.
# Every CDM with the CPBA-Peptide was washed several times with either pH 4.1, pH 7.4, pH 8.0 or pH 9.4. […]
# fibronectin = assay: SDS‐PAGE of fibronectin incubated with boronic acid dye; type: binding; conditions: physiological pH; distinct fluorescence at 280 kDa
# Procedure: Figure 1 A) Fluorescent microscopy of CDM. Green channel: Staining with 10 μM FL2 is shown. Red channel: Staining with a primary antibody (rabbit; Anti‐fibronectin) and secondary antibody (Anti‐Rabbit IgG, CFTM633) is shown. Third channel: Both channels are merged. The negative control was only stained with the antibodies. Every CDM with FL2 was washed several times with either pH 4.1, pH 7.4, or pH 9.4. B) SDS‐PAGE of fibronectin incubated with FL2 under different pH conditions. (1) FL2 incubation at pH 7.4. (2) FL2 incubation at pH 4.1. (3) Coomassie stain for fibronectin. M = molecular standard.
# For quantification, fibronectin was immobilized on Enzyme‐Linked Immunosorbent Assay (ELISA) plates before incubation with FL2. Surfaces were similarly treated with acidic, neutral, and basic conditions, and the remaining fluorescence of FL2 was quantified with each washing step (Figure S1, Supporting Information).
# SDS‐PAGE was performed as described.^[ [27] ^] For the separation of small molecular weight peptides, tricine‐gel‐electrophoresis (Novex 10–20% Tricine Gel, 1.0 mm × 12 well, Invitrogen by Thermo Fisher Scientific) was performed, using Mini Gel Tanks from Invitrogen under standardized conditions. […] The gel was destained with demineralized water or destaining buffer (10% 10x ws buffer, 20% methanol, 70% Mili‐Q water) and captured using a Gel‐Reader from BioRad.
# [8] = fluorescence decay at 572 nm, rising sugar concentrations, pH 7.4, n = 3
compound,measurement,setting,value
OB(O)c1ccccc1 [phenylboronic acid],pKA,[1],8.8
same,Binding constant with ARS at binding optimum,[1]; pH of 7,1.1 mM⁻¹
"O=C(O)c1ccc(B(O)O)cc1 [CPBA, 4‐Carboxy‐phenyl‐boronic acid, reference compound]",Association constant K eq with D‐mannitol,[2],0.08 ± 0.0 mM⁻¹
same,Association constant K eq with ARS,[3],1.46 ± 0.3 mM⁻¹
same,Association constant K eq with D‐glucamine,[4],2.09 mM⁻¹ and 2.09 ± 0.6 mM⁻¹
same,Association constant K eq with D‐(‐)‐fructose,[5],0.11 ± 0.0 mM⁻¹
CSCC[C@@H]1NC(=O)[C@H](Cc2c[nH]c3ccccc23)NC(=O)[C@@H]2CCCN2C(=O)[C@H](Cc2c[nH]c3ccccc23)NC(=O)[C@H](CCCNC(=N)N)NC(=O)[C@H]([C@@H](C)O)NC(=O)[C@@H](NC(=O)[C@H](CCC(N)=O)NC(=O)CNC(=O)[C@H](CCC(N)=O)NC(=O)[C@@H](NC(=O)[C@H](C)NC(=O)[C@@H](NC(=O)CCOCCOCCOCCOCCOCCOCCNC(=O)c2ccc(B(O)O)cc2)C(C)C)[C@@H](C)O)CSSC[C@@H](C(=O)N2CCC[C@H]2C(=O)N2CCC[C@H]2C(=O)N[C@@H](CCC(N)=O)C(=O)NCC(=O)N[C@@H](Cc2c[nH]c3ccccc23)C(=O)NCC(=O)NCCOCCOCCOCCOCCOCCOCCC(N)=O)NC1=O [CPBA‐PEG‐MI] ({Benzoyl(4-B(OH)2)-PEG6}-VATQGQCTRWPWMCPPQGWG[PEG6]-NH2; disulfide 7-14),Displacement of ARS from the peptide complex by D‐mannitol,[2]; [8],not able to displace ARS
same,IC50,myostatin,1.5 µM
same,Interaction with D‐glucamine in ARS competition assay,[4],strongest interaction
same,Shift of the absorbance maximum of ARS upon ester formation,[6],shift of the absorbance maximum of ARS to shorter wavelengths
same,Displacement of ARS from the peptide complex by D‐(‐)‐fructose,[5]; [8],not able to displace ARS
CPBA–NQEQVSPL–5/6‐carboxyrhodamine 110,pH‐dependent binding to glycan structures of the ECM compared with FL2,"[7]; 100 μM, three hours at pH 9.4, washed at pH 4.1, 7.4, 8.0 or 9.4",comparable pH‐dependent binding behavior
same,Binding to CDM at pH 7.4 compared with FL2,[7]; pH 7.4 wash,quantitatively weaker
NQEQVSPL [CPBA‐peptide],Association constant K eq with D‐mannitol,[2],0.22 ± 0.0 mM⁻¹
same,Association constant K eq with ARS,[3],2.35 ± 0.1 mM⁻¹
same,Association constant with ARS relative to unconjugated CPBA,"[3]; pH 7.4, CPBA‐peptide versus CPBA",1.6 fold
same,Association constant K eq with D‐glucamine,[4],3.87 ± 0.7 mM⁻¹
same,Association constant K eq with D‐(‐)‐fructose,[5],0.29 ± 0.0 mM⁻¹
"O=C1c2ccccc2C(=O)c2c1cc(S(=O)(=O)O)c(O)c2O [ARS, Alizarin Red S]",Binding to fibronectin after gel electrophoresis,fibronectin,confirmed
CSCC[C@@H]1NC(=O)[C@H](Cc2c[nH]c3ccccc23)NC(=O)[C@@H]2CCCN2C(=O)[C@H](Cc2c[nH]c3ccccc23)NC(=O)[C@H](CCCNC(=N)N)NC(=O)[C@H]([C@@H](C)O)NC(=O)[C@@H](NC(=O)[C@H](CCC(N)=O)NC(=O)CNC(=O)[C@H](CCC(N)=O)NC(=O)[C@@H](NC(=O)[C@H](C)NC(=O)[C@@H](NC(C)=O)C(C)C)[C@@H](C)O)CSSC[C@@H](C(=O)N2CCC[C@H]2C(=O)N2CCC[C@H]2C(=O)N[C@@H](CCC(N)=O)C(=O)NCC(=O)N[C@@H](Cc2c[nH]c3ccccc23)C(=O)NCC(=O)NCCOCCOCCOCCOCCOCCOCCC(N)=O)NC1=O [Acetyl‐MI] (Ac-VATQGQCTRWPWMCPPQGWG[PEG6]-NH2; disulfide 7-14),IC50,"myostatin; HEK SBE luciferase reporter cells, 4 nM myostatin, 48 h, 37 °C, n = 3, read-out: IC50, inhibition of myostatin‐induced SMAD phosphorylation",1.7 µM
same,Interaction with D‐glucamine in ARS competition assay,[4],nonbinding
